This passage reports IC50 and EC50 results from US11964973B2 (priority 2019, dated 2024).

Where two headings read alike, the source gives them in different places.

Test [1] has as its target human DGKζ (Homo sapiens (Human), UniProt Q13574). Nature of the test: biochemical. The class given is biochemical.
Test [2] concerns the target DGKα (Homo sapiens (Human), UniProt P23743). Nature of the test: biochemical. The class given is biochemical.
The test system of test [3] is Human venous whole blood (IFN-γ). Nature of the test: Human whole blood IFN-γ assay. The class given is cell-based. On the procedure: Assay 10: Human Whole Blood IFN-γ Assay
Human venous whole blood (22.5 μL per well), obtained from healthy donors, was pre-treated with compounds for one hour at 37° C. in a humidified 95% air/5% CO2 incubator. The blood was stimulated with 2.5 μL anti-human CD3 and anti-CD28 mAb at a final concentration of 1 μg/mL each for 24 hours at 37° C. IFN-γ in the supernatants was measured using AlphLISA kit (Cat #AL217).

Where [4] appears, read: liposome (LIPGLO) assay, read-out: DGKζ LIPGLO IC50.
Where [5] appears, read: liposome (LIPGLO) assay, read-out: DGKα LIPGLO IC50.
Setting [6] is: Homo sapiens, 24 h, human whole blood, anti-CD3 plus anti-CD28, 24 hours, read-out: INFg Whole Blood Normalized Agonist EC50.
Setting [7] is: Table A, liposome (LIPGLO) assay, read-out: DGKζ.
The mark [8] stands for this setting: Table A, liposome (LIPGLO) assay, read-out: DGKα.

Chain of DGKα (P23743 whole entry, looked up): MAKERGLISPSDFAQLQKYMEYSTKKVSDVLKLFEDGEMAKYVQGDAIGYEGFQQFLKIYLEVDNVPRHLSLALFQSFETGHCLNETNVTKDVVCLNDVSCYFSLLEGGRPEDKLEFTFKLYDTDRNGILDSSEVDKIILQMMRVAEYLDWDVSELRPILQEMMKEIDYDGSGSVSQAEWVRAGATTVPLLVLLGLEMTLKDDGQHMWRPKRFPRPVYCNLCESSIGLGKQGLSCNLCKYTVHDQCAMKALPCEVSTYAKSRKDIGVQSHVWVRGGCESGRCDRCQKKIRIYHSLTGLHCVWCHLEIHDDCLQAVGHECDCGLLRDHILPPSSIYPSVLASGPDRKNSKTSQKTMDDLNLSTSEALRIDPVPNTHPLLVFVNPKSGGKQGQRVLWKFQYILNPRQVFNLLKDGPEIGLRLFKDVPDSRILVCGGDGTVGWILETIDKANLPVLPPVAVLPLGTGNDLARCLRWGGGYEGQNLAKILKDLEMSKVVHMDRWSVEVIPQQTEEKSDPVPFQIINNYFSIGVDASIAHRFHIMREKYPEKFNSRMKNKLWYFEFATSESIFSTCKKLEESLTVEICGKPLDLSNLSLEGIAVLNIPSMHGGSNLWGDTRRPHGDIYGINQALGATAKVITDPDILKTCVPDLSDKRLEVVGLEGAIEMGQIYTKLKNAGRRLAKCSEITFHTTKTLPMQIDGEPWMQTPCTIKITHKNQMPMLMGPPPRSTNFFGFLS
Chain of human DGKζ (Q13574 whole entry, looked up): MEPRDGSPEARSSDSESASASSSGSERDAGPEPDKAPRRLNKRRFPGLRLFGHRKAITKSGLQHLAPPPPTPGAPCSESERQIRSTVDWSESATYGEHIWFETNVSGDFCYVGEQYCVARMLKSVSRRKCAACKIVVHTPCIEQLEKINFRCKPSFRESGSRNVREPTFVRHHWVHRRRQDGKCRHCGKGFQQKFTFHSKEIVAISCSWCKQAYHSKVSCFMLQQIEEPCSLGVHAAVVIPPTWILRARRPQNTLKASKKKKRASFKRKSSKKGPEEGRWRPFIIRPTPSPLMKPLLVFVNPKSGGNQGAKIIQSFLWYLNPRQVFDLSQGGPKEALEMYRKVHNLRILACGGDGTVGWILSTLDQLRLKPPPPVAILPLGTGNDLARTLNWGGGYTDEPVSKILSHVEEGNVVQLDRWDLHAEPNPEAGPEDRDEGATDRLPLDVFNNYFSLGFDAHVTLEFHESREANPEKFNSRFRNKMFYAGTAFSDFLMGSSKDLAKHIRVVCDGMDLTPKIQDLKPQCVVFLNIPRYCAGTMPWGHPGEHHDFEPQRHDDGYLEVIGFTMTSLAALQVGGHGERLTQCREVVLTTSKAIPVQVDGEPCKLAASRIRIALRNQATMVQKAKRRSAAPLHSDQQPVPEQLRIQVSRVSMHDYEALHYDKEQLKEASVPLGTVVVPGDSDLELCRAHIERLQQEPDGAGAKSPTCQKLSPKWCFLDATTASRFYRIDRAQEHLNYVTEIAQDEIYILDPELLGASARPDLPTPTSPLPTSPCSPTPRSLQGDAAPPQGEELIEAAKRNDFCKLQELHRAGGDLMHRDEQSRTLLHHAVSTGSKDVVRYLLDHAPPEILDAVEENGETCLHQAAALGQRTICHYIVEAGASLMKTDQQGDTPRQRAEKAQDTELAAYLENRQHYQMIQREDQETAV

With `CCC(C)(C)c1ccc(O[C@H]2CCN(c3cc(=O)n(C)c4ccc(C#N)nc34)C[C@H]2C)cc1` (single isomer, unassigned) [Example 171], the IC50 was 3.7 µM in test [1] (read-out: DGKζ LIPGLO IC50) and 1.4 µM in test [2] (read-out: DGKα LIPGLO IC50). For the same compound, the EC50 in test [3] (human whole blood, anti-CD3 plus anti-CD28, 24 hours, read-out: INFg Whole Blood Normalized Agonist EC50) came out at 3 µM.

Regarding `CC(C)c1ccc(O[C@H]2CCN(c3cc(=O)n(C)c4ccc(C#N)nc34)C[C@H]2C)cc1` (single isomer, unassigned) [Example 177], the IC50 in test [1] (setting [4]) was determined as 1.1 µM; in test [2] (setting [5]) it was 0.14 µM. Also, in test [3] (setting [6]), the EC50 was 3.5 µM.

On to `CC(C)c1ccc(O[C@H]2CCN(c3cc(=O)n(C)c4ccc(C#N)nc34)C[C@H]2C)cc1` (single isomer, unassigned) [Example 183], for which the IC50 was 0.94 µM in test [1] (setting [7]) and 0.71 µM in test [2] (setting [8]). In addition, the EC50 in test [3] (Homo sapiens, human whole blood IFN-γ, read-out: INFg Whole Blood) came out at 2.6 µM.

Consider `CC(C)c1ccc(O[C@H]2CCN(c3cc(=O)n(C)c4ccc(C#N)nc34)C[C@H]2C)cc1` (single isomer, unassigned) [Example 184], for which the IC50 worked out at 6 µM in test [1] (setting [7]) and 1.4 µM in test [2] (setting [8]). The EC50 in test [3] (human whole blood IFN-γ, read-out: INFg Whole Blood) was determined as 4 µM.

As to `CC[C@@H]1CN(c2cc(=O)n(C)c3ccc(C#N)nc23)CC[C@H]1Oc1cccc(C(C)(C)C)c1` (single isomer, unassigned) [Example 198], the IC50 is 1.3 µM in test [1] (setting [7]) and 0.16 µM in test [2] (setting [8]). Moreover, in test [3] (read-out: INFg Whole Blood, human whole blood IFN-γ), the EC50 stood at 3.1 µM.

Take `CCC(C)(C)c1ccc(OC2CCN(c3cc(=O)n(C)c4ccc(C#N)nc34)CC2)cc1` [Example 54, 5-methyl-6-oxo-8-(4-(4-(tert-pentyl)phenoxy)piperidin-1-yl)-5,6-dihydro-1,5-naphthyridine-2-carbonitrile]: the IC50 amounted to 2.1 µM in test [1] (setting [4]) and 0.54 µM in test [2] (setting [5]). Further, the EC50 in test [3] (setting [6]) is 2.3 µM.

As for `Cn1c(=O)cc(N2CCC(Oc3ccc(Cc4ccccc4)cc3)CC2)c2nc(C#N)ccc21` [Example 55, 8-(4-(4-benzylphenoxy)piperidin-1-yl)-5-methyl-6-oxo-5,6-dihydro-1,5-naphthyridine-2-carbonitrile], the IC50 is 3.8 µM in test [1] (setting [4]) and 0.95 µM in test [2] (setting [5]). Further, the EC50 in test [3] (setting [6]) was determined as 3.7 µM.

Turning to `CCCCc1ccc(OC2CCN(c3cc(=O)n(C)c4ccc(C#N)nc34)CC2)cc1` [Example 56, 8-(4-(4-butylphenoxy)piperidin-1-yl)-5-methyl-6-oxo-5,6-dihydro-1,5-naphthyridine-2-carbonitrile], the results for the IC50 in test [1] (setting [4]) and in test [2] (setting [5]) were 13 µM and 0.84 µM, respectively. In addition, the EC50 in test [3] (setting [6]) is 3.8 µM.

Take `CCCc1ccc(OC2CCN(c3cc(=O)n(C)c4ccc(C#N)nc34)CC2)cc1` [Example 57, 5-methyl-6-oxo-8-(4-(4-propylphenoxy)piperidin-1-yl)-5,6-dihydro-1,5-naphthyridine-2-carbonitrile]: the IC50 in test [1] (setting [4]) stood at 6.1 µM; in test [2] (setting [5]), 0.73 µM. In test [3] (setting [6]), the EC50 was 4.3 µM.

For `Cn1c(=O)cc(N2CCC(Oc3ccc(C4CCCC4)cc3)CC2)c2nc(C#N)ccc21` [Example 58, 8-(4-(4-cyclopentylphenoxy)piperidin-1-yl)-5-methyl-6-oxo-5,6-dihydro-1,5-naphthyridine-2-carbonitrile], the IC50 was found to be 2.9 µM in test [1] (setting [4]) and 0.34 µM in test [2] (setting [5]). Besides, the EC50 in test [3] (setting [6]) turned out to be 5.9 µM.

In the case of `Cn1c(=O)cc(N2CCC(Oc3ccc(C4CC4)cc3)CC2)c2nc(C#N)ccc21` [Example 59, 8-(4-(4-cyclopropylphenoxy)piperidin-1-yl)-5-methyl-6-oxo-5,6-dihydro-1,5-naphthyridine-2-carbonitrile], the IC50 in test [1] (setting [4]) was found to be 3.7 µM; in test [2] (setting [5]) it was 1 µM. The EC50 in test [3] (setting [6]) came to 6.4 µM.

Turning to `Cc1cc(OC2CCN(c3cc(=O)n(C)c4ccc(C#N)nc34)CC2)ccc1C(C)C` [Example 60, 8-(4-(4-isopropyl-3-methylphenoxy)piperidin-1-yl)-5-methyl-6-oxo-5,6-dihydro-1,5-naphthyridine-2-carbonitrile], the IC50 in test [1] (setting [4]) was determined as 5.5 µM; in test [2] (setting [5]), 0.24 µM. In addition, the EC50 in test [3] (setting [6]) was determined as 7.9 µM.

As for `Cn1c(=O)cc(N2CCC(Oc3ccc4c(c3)CCCC4)CC2)c2nc(C#N)ccc21` [Example 61, 5-methyl-6-oxo-8-(4-((5,6,7,8-tetrahydronaphthalen-2-yl)oxy)piperidin-1-yl)-5,6-dihydro-1,5-naphthyridine-2-carbonitrile], the IC50 turned out to be 4.7 µM in test [1] (setting [4]) and 0.73 µM in test [2] (setting [5]). Moreover, the EC50 in test [3] (setting [6]) came out at 8.5 µM.

`CCCCCc1ccc(OC2CCN(c3cc(=O)n(C)c4ccc(C#N)nc34)CC2)cc1` [Example 62, 5-methyl-6-oxo-8-(4-(4-pentylphenoxy)piperidin-1-yl)-5,6-dihydro-1,5-naphthyridine-2-carbonitrile]: the values for the IC50 in test [1] (setting [4]) and in test [2] (setting [5]) were 5.2 µM and 1.5 µM, respectively. Besides, the EC50 in test [3] (setting [6]) came out at 20 µM.

For `Cn1c(=O)cc(N2CCC(Oc3ccc(OC(C)(C)C)cc3)CC2)c2nc(C#N)ccc21` [Example 65, 8-(4-(4-(tert-butoxy)phenoxy)piperidin-1-yl)-5-methyl-6-oxo-5,6-dihydro-1,5-naphthyridine-2-carbonitrile], the IC50 in test [1] (setting [4]) came out at 3.3 µM; in test [2] (setting [5]) it was 0.56 µM. For the same compound, in test [3] (setting [6]), the EC50 turned out to be 6.8 µM.

On to `Cn1c(=O)cc(N2CCC(Oc3ccc(Cl)cn3)CC2)c2nc(C#N)ccc21` [Example 67, 8-(4-((5-chloropyridin-2-yl)oxy)piperidin-1-yl)-5-methyl-6-oxo-5,6-dihydro-1,5-naphthyridine-2-carbonitrile], for which the IC50 in test [1] (setting [4]) came to 7.1 µM; in test [2] (setting [5]) it was 1.6 µM. The EC50 in test [3] (setting [6]) was 2.7 µM.

On to `Cn1c(=O)cc(N2CCC(Oc3ccc(C(C)(C)C)nn3)CC2)c2nc(C#N)ccc21` [Example 68, 8-(4-((6-(tert-butyl)pyridazin-3-yl)oxy)piperidin-1-yl)-5-methyl-6-oxo-5,6-dihydro-1,5-naphthyridine-2-carbonitrile], for which the IC50 in test [1] (setting [4]) and in test [2] (setting [5]) was 1.7 µM each time. Moreover, the EC50 in test [3] (setting [6]) came out at 9.6 µM.

For the compound `Cn1c(=O)cc(N2CCC(Oc3cnc4ccccc4n3)CC2)c2nc(C#N)ccc21` [Example 69, 5-methyl-6-oxo-8-(4-(quinoxalin-2-yloxy)piperidin-1-yl)-5,6-dihydro-1,5-naphthyridine-2-carbonitrile], the IC50 turned out to be 1.4 µM in test [1] (setting [4]) and 5.7 µM in test [2] (setting [5]). Besides, the EC50 in test [3] (setting [6]) was 17 µM.

With `Cc1cc(OC2CCN(c3cc(=O)n(C)c4ccc(C#N)nc34)CC2)nc(C)n1` [Example 70, 8-(4-((2,6-dimethylpyrimidin-4-yl)oxy)piperidin-1-yl)-5-methyl-6-oxo-5,6-dihydro-1,5-naphthyridine-2-carbonitrile], the IC50 in test [1] (setting [4]) is 11 µM; in test [2] (setting [5]) it was 12 µM. In addition, the EC50 in test [3] (setting [6]) was determined as 20 µM.

Regarding `Cn1c(=O)cc(N2CCC(Oc3ncnc4ccccc34)CC2)c2nc(C#N)ccc21` [Example 71, 5-methyl-6-oxo-8-(4-(quinazolin-4-yloxy)piperidin-1-yl)-5,6-dihydro-1,5-naphthyridine-2-carbonitrile], the IC50 in test [1] (setting [4]) was 3 µM; in test [2] (setting [5]), 2.3 µM. For the same compound, the EC50 in test [3] (setting [6]) is 20 µM.

For the compound `COc1cc(OC2CCN(c3cc(=O)n(C)c4ccc(C#N)nc34)CC2)nc2cc(Cl)ccc12` [Example 73, 8-(4-((7-chloro-4-methoxyquinolin-2-yl)oxy)piperidin-1-yl)-5-methyl-6-oxo-5,6-dihydro-1,5-naphthyridine-2-carbonitrile], the IC50 in test [1] (setting [4]) came to 8.3 µM; in test [2] (setting [5]) it was 2.2 µM. Moreover, the EC50 in test [3] (setting [6]) was 20 µM.

For `Cn1c(=O)cc(N2CCC(Oc3nccc4cccnc34)CC2)c2nc(C#N)ccc21` [Example 74, 8-(4-((1,7-naphthyridin-8-yl)oxy)piperidin-1-yl)-5-methyl-6-oxo-5,6-dihydro-1,5-naphthyridine-2-carbonitrile], the IC50 in test [1] (setting [4]) amounted to 3.3 µM; in test [2] (setting [5]), 2.8 µM. Besides, the EC50 in test [3] (setting [6]) turned out to be 20 µM.

Take `Cn1c(=O)cc(N2CCC(Oc3nncc4ccccc34)CC2)c2nc(C#N)ccc21` [Example 75, 5-methyl-6-oxo-8-(4-(phthalazin-1-yloxy)piperidin-1-yl)-5,6-dihydro-1,5-naphthyridine-2-carbonitrile]: the IC50 is 18 µM in test [1] (setting [4]) and 27 µM in test [2] (setting [5]). The EC50 in test [3] (setting [6]) came to 20 µM.

In the case of `CCC(C)(C)c1ccc(O[C@@H]2CCN(c3cc(=O)n(C)c4ccc(C#N)nc34)C[C@H]2C)cc1` [Example 82, 5-methyl-8-((3R,4R)-3-methyl-4-(4-(tert-pentyl)phenoxy)piperidin-1-yl)-6-oxo-5,6-dihydro-1,5-naphthyridine-2-carbonitrile], the IC50 in test [1] (read-out: DGKζ LIPGLO IC50) came out at 3.9 µM; in test [2] (read-out: DGKα LIPGLO IC50) it was 0.03 µM. In test [3] (setting [6]), the EC50 was found to be 0.65 µM.

Take `C[C@@H]1CN(c2cc(=O)n(C)c3ccc(C#N)nc23)CC[C@H]1Oc1cccc(C2CC2)c1` [Example 91, 8-((3R,4R)-4-(3-cyclopropylphenoxy)-3-methylpiperidin-1-yl)-5-methyl-6-oxo-5,6-dihydro-1,5-naphthyridine-2-carbonitrile]: the results for the IC50 in test [1] (setting [4]) and in test [2] (setting [5]) were 14 µM and 0.065 µM, respectively. For the same compound, the EC50 in test [3] (setting [6]) was 4.4 µM.
